System: 931267-113-T-J1-PDC KRAS spheroid with HUVEC/MSC, viability
Test: Anticancer human tumor 931267-113-T-J1-PDC patient-derived colon adenocarcinoma cell line growth inhibition [KRAS2]
Settings: for viability, T/C: stronger effect = lower value
Procedure, shortened: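 Combination screen of spheroid viability in tumor-cell co-cultures with endothelial (HUVEC) and mesenchymal stem cell stroma. Each agent was tested in half-log dilutions, topping at clinical Cmax or at 10 microM without a known Cmax.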

[1] = curve of first compound, second compound 0.1 µM
[2] = curve of first compound, second compound 0.316 µM
[3] = curve of first compound, second compound 1 µM
[4] = curve of first compound, second compound 3.16 µM
[5] = curve of first compound, second compound 10 µM
[6] = second compound 0.1 µM, first compound 0.0316 µM
[7] = second compound 0.316 µM, first compound 0.0316 µM
[8] = second compound 1 µM, first compound 0.0316 µM
[9] = second compound 3.16 µM, first compound 0.0316 µM
[10] = second compound 10 µM, first compound 0.0316 µM
[11] = second compound 0.1 µM, first compound 0.1 µM
[12] = second compound 0.1 µM, first compound 0.316 µM
[13] = second compound 0.1 µM, first compound 1 µM
[14] = second compound 0.1 µM, first compound 3.16 µM
[15] = second compound 0.1 µM, first compound 10 µM
[16] = second compound 0.316 µM, first compound 0.1 µM
[17] = second compound 0.316 µM, first compound 0.316 µM
[18] = second compound 0.316 µM, first compound 1 µM
[19] = second compound 0.316 µM, first compound 3.16 µM
[20] = second compound 0.316 µM, first compound 10 µM
[21] = second compound 1 µM, first compound 0.1 µM
[22] = second compound 1 µM, first compound 0.316 µM
[23] = second compound 1 µM, first compound 1 µM
[24] = second compound 1 µM, first compound 3.16 µM
[25] = second compound 1 µM, first compound 10 µM
[26] = second compound 3.16 µM, first compound 0.1 µM
[27] = second compound 3.16 µM, first compound 0.316 µM
[28] = second compound 3.16 µM, first compound 1 µM
[29] = second compound 3.16 µM, first compound 3.16 µM
[30] = second compound 3.16 µM, first compound 10 µM
[31] = second compound 10 µM, first compound 0.1 µM
[32] = second compound 10 µM, first compound 0.316 µM
[33] = second compound 10 µM, first compound 1 µM
[34] = second compound 10 µM, first compound 3.16 µM
[35] = second compound 10 µM, first compound 10 µM
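Also: compound exposure lasted 7 days before the readout.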
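For viability, T/C in this document: 100% = DMSO vehicle control viability.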

## CC(=O)Nc1cccc(-n2c(=O)n(C3CC3)c(=O)c3c(Nc4ccc(I)cc4F)n(C)c(=O)c(C)c32)c1 + CC1OCC2(CCN(c3cnc(Sc4ccnc(N)c4Cl)c(N)n3)CC2)C1N
[1]
  IC50: 8.08 nM
[2]
  IC50: 9.27 nM
[3]
  IC50: 3.37 nM
[4]
  IC50: 0.951 nM
[5]
  IC50: 0.274 nM
Second compound 0.1 µM, first compound 0.0001 µM
  viability, T/C: 92%
Second compound 0.1 µM, first compound 0.000316 µM
  viability, T/C: 81.6%
Second compound 0.1 µM, first compound 0.001 µM
  viability, T/C: 68.2%
Second compound 0.1 µM, first compound 0.00316 µM
  viability, T/C: 56.1%
Second compound 0.1 µM, first compound 0.01 µM
  viability, T/C: 62.2%
[6]
  viability, T/C: 20.1%
Second compound 0.316 µM, first compound 0.0001 µM
  viability, T/C: 60.2%
Second compound 0.316 µM, first compound 0.000316 µM
  viability, T/C: 54.3%
Second compound 0.316 µM, first compound 0.001 µM
  viability, T/C: 71.8%
Second compound 0.316 µM, first compound 0.00316 µM
  viability, T/C: 48.9%
Second compound 0.316 µM, first compound 0.01 µM
  viability, T/C: 51.7%
[7]
  viability, T/C: 7.58%
Second compound 1 µM, first compound 0.0001 µM
  viability, T/C: 67.7%
Second compound 1 µM, first compound 0.000316 µM
  viability, T/C: 69.5%
Second compound 1 µM, first compound 0.001 µM
  viability, T/C: 53.9%
Second compound 1 µM, first compound 0.00316 µM
  viability, T/C: 50.8%
Second compound 1 µM, first compound 0.01 µM
  viability, T/C: 37.7%
[8]
  viability, T/C: 6.56%
Second compound 3.16 µM, first compound 0.0001 µM
  viability, T/C: 59.7%
Second compound 3.16 µM, first compound 0.000316 µM
  viability, T/C: 61.5%
Second compound 3.16 µM, first compound 0.001 µM
  viability, T/C: 46.9%
Second compound 3.16 µM, first compound 0.00316 µM
  viability, T/C: 38.7%
Second compound 3.16 µM, first compound 0.01 µM
  viability, T/C: 26.9%
[9]
  viability, T/C: 7.86%
Second compound 10 µM, first compound 0.0001 µM
  viability, T/C: 60.8%
Second compound 10 µM, first compound 0.000316 µM
  viability, T/C: 47.9%
Second compound 10 µM, first compound 0.001 µM
  viability, T/C: 31.8%
Second compound 10 µM, first compound 0.00316 µM
  viability, T/C: 35%
Second compound 10 µM, first compound 0.01 µM
  viability, T/C: 12.3%
[10]
  viability, T/C: 2.06%

## C=CC(=O)N1CCN(c2nc(OCC3CCCN3C)nc3c2CCN(c2cccc4cccc(C)c24)C3)CC1CC#N (configuration not stated)
Compound alone, run of 08/26/2021
  IC50: 1.65 µM [middle of 5 runs]
Compound alone, run of 09/02/2021
  IC50: 1.62 µM [middle of 5 runs]

## O=C(c1cc(Cc2n[nH]c(=O)c3ccccc23)ccc1F)N1CCN(C(=O)C2CC2)CC1 + C=CC(=O)N1CCN(c2nc(=O)n(-c3c(C)ccnc3C(C)C)c3nc(-c4c(O)cccc4F)c(F)cc23)C(C)C1
[1]
  IC50: > 10000 nM
[2]
  IC50: > 10000 nM
[3]
  IC50: > 10000 nM
[4]
  IC50: > 10000 nM
[5]
  IC50: > 10000 nM
[6]
  viability, T/C: 94.3%
[11]
  viability, T/C: 87%
[12]
  viability, T/C: 82.3%
[13]
  viability, T/C: 97.7%
[14]
  viability, T/C: 101%
[15]
  viability, T/C: 85.1%
[7]
  viability, T/C: 110%
[16]
  viability, T/C: 108%
[17]
  viability, T/C: 81.9%
[18]
  viability, T/C: 83.6%
[19]
  viability, T/C: 93.9%
[20]
  viability, T/C: 97.3%
[8]
  viability, T/C: 88%
[21]
  viability, T/C: 103%
[22]
  viability, T/C: 113%
[23]
  viability, T/C: 100%
[24]
  viability, T/C: 88.2%
[25]
  viability, T/C: 92.2%
[9]
  viability, T/C: 105%
[26]
  viability, T/C: 115%
[27]
  viability, T/C: 110%
[28]
  viability, T/C: 89.9%
[29]
  viability, T/C: 107%
[30]
  viability, T/C: 112%
[10]
  viability, T/C: 89.2%
[31]
  viability, T/C: 102%
[32]
  viability, T/C: 113%
[33]
  viability, T/C: 111%
[34]
  viability, T/C: 102%
[35]
  viability, T/C: 99.6%

## CC(C)NCC(C(=O)N1CCN(c2ncnc3c2C(C)CC3O)CC1)c1ccc(Cl)cc1 (configuration not stated) + CNCc1ccccc1-c1csc(C(C)Nc2nc(C)nc3cc(OC)c(OC)cc23)c1
[1]
  IC50: 4930 nM
[2]
  IC50: 5430 nM
[3]
  IC50: 90.5 nM
[4]
  IC50: < 31.6 nM
[5]
  IC50: < 31.6 nM
[6]
  viability, T/C: 96.3%
[11]
  viability, T/C: 90.4%
[12]
  viability, T/C: 79%
[13]
  viability, T/C: 68.4%
[14]
  viability, T/C: 59.3%
[15]
  viability, T/C: 38.6%
[7]
  viability, T/C: 76%
[16]
  viability, T/C: 70%
[17]
  viability, T/C: 63.6%
[18]
  viability, T/C: 54.6%
[19]
  viability, T/C: 69.1%
[20]
  viability, T/C: 31.1%
[8]
  viability, T/C: 60.7%
[21]
  viability, T/C: 47.9%
[22]
  viability, T/C: 38.9%
[23]
  viability, T/C: 33.4%
[24]
  viability, T/C: 21.6%
[25]
  viability, T/C: 19.2%
[9]
  viability, T/C: 0.1%
[26]
  viability, T/C: 0.18%
[27]
  viability, T/C: 0.09%
[28]
  viability, T/C: 0.1%
[29]
  viability, T/C: 0.14%
[30]
  viability, T/C: 0.16%
[10]
  viability, T/C: 0.17%
[31]
  viability, T/C: 0.15%
[32]
  viability, T/C: 0.15%
[33]
  viability, T/C: 0.14%
[34]
  viability, T/C: 0.25%
[35]
  viability, T/C: 1.22%

Source: PubChem BioAssay AID1963863 (Molecular Pharmacology Branch, DTP, NCI, 2024)
